Results as given in patent US20210188813A1, “EZH2 INHIBITOR AND PHARMACEUTICALLY ACCEPTABLE SALTS AND POLYMORPHIC SUBSTANCES THEREOF, AND APPLICATION OF EZH2 INHIBITOR” (SHANGHAI HAIYAN PHARMACEUTICAL TECHNOLOGY CO., LTD., priority 2018, published 2021).
Converted amounts (≈) assume the structure as drawn. Like-named read-outs stand apart in the source and are kept apart here. Values belong to the molecule of their own block, whether it stands above or below them.

Key:
PRC2 (EZH2-Y641F) = biological target: T1, PRC2 (EZH2-Y641F) (Homo sapiens, UniProt Q15910, Y641F); assay: In vitro methyltransferase assay; format: biochemical
T1 construct: purchased Active motif
Description: Recombinant PRC2 (EZH2-Y641F) was purchased from Active motif, S-adenosyl-methionin chloride (SAM) and Poly-L-lysine (PLL) were purchased from Sigma-Aldrich, H3(1-50)K27me1 peptide was purchased from Cisbio. LANCEUltra (Perkinelmer) system was used for detection. For the enzyme activity test, tested compounds are 1:3 diluted for 8-points, and added into each well, then 100 ng enzyme is added. And then the buffer [20 mM Tris pH8.5, 2 mM MgCl2, 0.01% Tween-20, 1 mM TCEP] containing […]/250 nM H3 (1-50)K27me1 premixtures are added. After 3 hours enzyme reaction at RT, the premixed detection buffer (PLL, Europium antibody and Ulight) is added, and react for 1 h at RT, then read fluorescence on Tecan infinite pro. IC50s are counted by XLfit using a four-parameter model.

Pfeiffer cells = assay: Cell proliferation assay, Pfeiffer; format: cell-based; details: for IC50: Homo sapiens, Pfeiffer, 144 h, 6 days' growth, cell counting kit-8
Description: (§1) Cell lines Pfeiffer (CRL-2632), suDHL-6 (CRL-2959) and suDHL-10 (CRL-2963) were obtained from ATCC. All cell lines were cultured in RPMI-1640 medium (Gibco) plus 10% FBS (Gibco). Cells are harvested by centrifuge and densities are determined using a CounterStar cell counter. Appropriate number of cells are plated in a96-well culture plate and pre-incubate overnight. Tested compounds are 1:3 diluted for 8-points and added into each well. After 6 days' growth, cell counting kit-8 (Dojindo) is used to detect cell viability and read on Tecan infinite pro. IC50s are counted by XLfit using a four-parameter model.

SU-DHL-10 = assay: Cell proliferation assay, SU-DHL-10; format: cell-based
Description: as §1

[1] = Dynamic solubility experiment; format: physicochemical; details: for solubility at 24 h: thermodynamic from solid, room temperature
Excerpt: The free base samples and the two crystal forms were plotted separately in the experiment.

SU-DHL-6 = assay: Cell proliferation assay, SU-DHL-6; format: cell-based
Description: as §1

T1 sequence (Q15910 whole entry Y641F): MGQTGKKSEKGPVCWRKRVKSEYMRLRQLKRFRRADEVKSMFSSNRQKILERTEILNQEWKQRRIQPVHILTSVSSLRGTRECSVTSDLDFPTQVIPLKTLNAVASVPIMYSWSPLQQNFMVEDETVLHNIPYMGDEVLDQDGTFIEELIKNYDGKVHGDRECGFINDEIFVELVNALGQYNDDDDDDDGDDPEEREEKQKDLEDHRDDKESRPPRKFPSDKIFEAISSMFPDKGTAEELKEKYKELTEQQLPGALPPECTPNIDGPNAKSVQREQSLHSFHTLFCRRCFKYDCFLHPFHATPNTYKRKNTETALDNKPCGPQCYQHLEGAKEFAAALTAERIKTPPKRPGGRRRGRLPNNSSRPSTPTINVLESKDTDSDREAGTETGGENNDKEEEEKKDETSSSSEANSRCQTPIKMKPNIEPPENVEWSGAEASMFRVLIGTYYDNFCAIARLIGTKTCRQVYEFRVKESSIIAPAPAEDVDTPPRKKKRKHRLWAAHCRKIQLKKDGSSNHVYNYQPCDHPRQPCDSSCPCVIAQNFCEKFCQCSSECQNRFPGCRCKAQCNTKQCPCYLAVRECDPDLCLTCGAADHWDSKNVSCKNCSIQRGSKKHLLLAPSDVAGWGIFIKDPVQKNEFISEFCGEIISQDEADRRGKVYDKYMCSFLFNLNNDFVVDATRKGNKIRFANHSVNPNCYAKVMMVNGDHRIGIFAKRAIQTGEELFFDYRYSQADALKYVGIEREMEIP
T1 sequence (O75530 whole entry partner): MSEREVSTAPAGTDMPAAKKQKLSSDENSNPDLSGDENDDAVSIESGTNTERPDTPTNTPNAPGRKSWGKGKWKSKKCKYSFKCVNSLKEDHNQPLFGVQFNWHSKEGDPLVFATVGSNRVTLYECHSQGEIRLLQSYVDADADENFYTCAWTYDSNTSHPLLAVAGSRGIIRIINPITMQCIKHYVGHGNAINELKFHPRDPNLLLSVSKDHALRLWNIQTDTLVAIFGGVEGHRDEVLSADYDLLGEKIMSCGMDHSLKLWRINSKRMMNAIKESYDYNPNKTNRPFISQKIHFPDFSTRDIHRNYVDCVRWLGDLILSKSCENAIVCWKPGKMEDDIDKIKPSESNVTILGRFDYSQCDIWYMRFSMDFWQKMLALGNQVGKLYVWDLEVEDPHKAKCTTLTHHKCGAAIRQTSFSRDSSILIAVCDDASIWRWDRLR
T1 sequence (Q15022 whole entry partner): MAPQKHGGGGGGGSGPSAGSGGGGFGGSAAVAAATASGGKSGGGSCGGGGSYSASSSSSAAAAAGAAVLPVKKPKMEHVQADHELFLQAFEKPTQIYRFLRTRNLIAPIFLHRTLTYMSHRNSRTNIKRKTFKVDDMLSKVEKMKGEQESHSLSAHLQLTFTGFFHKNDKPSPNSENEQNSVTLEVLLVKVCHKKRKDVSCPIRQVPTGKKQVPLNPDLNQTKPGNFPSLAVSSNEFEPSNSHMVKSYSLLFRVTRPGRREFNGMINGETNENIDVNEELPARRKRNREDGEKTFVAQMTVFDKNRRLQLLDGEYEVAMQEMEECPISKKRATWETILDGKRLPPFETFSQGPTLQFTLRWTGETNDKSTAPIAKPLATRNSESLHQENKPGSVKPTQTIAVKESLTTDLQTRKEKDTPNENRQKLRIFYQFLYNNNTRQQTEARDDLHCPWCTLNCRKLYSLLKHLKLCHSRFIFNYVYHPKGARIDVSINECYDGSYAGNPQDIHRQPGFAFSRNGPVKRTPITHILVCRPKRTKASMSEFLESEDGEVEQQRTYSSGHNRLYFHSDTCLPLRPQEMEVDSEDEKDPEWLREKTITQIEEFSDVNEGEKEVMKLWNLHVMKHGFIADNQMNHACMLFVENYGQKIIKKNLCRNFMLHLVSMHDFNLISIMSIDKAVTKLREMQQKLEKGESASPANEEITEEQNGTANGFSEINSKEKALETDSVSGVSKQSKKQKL
T1 sequence (Q09028 whole entry partner): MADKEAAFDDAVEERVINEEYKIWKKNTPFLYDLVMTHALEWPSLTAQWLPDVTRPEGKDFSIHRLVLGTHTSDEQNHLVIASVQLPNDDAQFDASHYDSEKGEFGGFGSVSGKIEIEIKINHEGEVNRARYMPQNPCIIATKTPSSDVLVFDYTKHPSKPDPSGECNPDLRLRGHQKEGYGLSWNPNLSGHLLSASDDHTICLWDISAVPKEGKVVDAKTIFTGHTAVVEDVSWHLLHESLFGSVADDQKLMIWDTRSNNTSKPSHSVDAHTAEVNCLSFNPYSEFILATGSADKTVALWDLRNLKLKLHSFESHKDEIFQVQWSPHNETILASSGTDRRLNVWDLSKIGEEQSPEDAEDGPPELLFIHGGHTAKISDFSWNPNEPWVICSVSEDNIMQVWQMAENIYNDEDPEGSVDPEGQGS
T1 sequence (Q6ZN18 whole entry partner): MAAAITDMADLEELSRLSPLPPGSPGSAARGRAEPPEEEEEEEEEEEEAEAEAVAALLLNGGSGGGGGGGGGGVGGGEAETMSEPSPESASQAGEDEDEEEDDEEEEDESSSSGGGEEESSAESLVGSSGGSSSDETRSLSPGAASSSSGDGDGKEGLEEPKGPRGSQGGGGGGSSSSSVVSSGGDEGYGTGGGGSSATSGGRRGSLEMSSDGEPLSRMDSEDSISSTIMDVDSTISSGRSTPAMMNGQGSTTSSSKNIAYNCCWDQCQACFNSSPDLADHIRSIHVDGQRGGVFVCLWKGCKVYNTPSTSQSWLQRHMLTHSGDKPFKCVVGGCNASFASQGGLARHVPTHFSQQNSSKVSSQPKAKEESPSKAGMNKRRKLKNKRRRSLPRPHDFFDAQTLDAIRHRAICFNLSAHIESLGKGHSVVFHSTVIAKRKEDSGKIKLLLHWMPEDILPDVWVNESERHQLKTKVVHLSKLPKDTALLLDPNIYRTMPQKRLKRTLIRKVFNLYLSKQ

- IC50 (PRC2 (EZH2-Y641F)): 4820 nM
Structure (SMILES): CCN(c1cc(C(=O)NCc2c(C)cc(C)[nH]c2=O)c(C)c2c1cnn2C)C1CCC(N(C)C)CC1 (stereo not shown) [D2]
- IC50 (Pfeiffer cells): > 3000 nM

- IC50 (PRC2 (EZH2-Y641F)): > 10000 nM
Structure (SMILES): CCN(c1cc(C(=O)NCc2c(C)cc(C)[nH]c2=O)c(C)c2c1cnn2C)C1CCC(N2CC(OC)C2)CC1 (stereo not shown) [D3]
- IC50 (Pfeiffer cells): > 3000 nM

Structure (SMILES): CCN(c1cc(C(=O)NCc2c(C)cc(C)[nH]c2=O)c(C)c2c1cnn2C)C1CCN(CC(F)(F)F)CC1 [D4]
- IC50 (PRC2 (EZH2-Y641F)): > 10000 nM
- IC50 (Pfeiffer cells): > 3000 nM

Structure (SMILES): CCc1c(C(=O)NCc2c(C)cc(C)[nH]c2=O)cc2c(cnn2C)c1N(CC)[C@H]1CC[C@H](N2CC(OC)C2)CC1 [Free base, N-((4,6-dimethyl-2-oxo-1,2-dihydropyridin-3-yl)methyl)-5-ethyl-4-(ethyl((1S,4S)-4-(3-methoxyazetidin-1-yl)cyclohexyl)amino)-1-methyl-1H-indazole-6-carboxamide]
- IC50 (PRC2 (EZH2-Y641F)): 12 nM
- inhibitory activity against EZH2 Y641F enzyme (PRC2 (EZH2-Y641F)): high inhibitory activity
- inhibitory activity against EZH2 Y641F enzyme (PRC2 (EZH2-Y641F); listed as compound of formula X): high inhibitory activities
- inhibitory activity against SU-DHL-10 cells (SU-DHL-10): high inhibitory activities
- IC50 (Pfeiffer cells): 7 nM
- inhibitory activity against cells (Pfeiffer cells; Table 10): high inhibitory activity
- Final pH ([1]; 0.1M HCl): 4.56
- Phenomenon ([1]; 0.1M HCl): clear
- Final pH ([1]; H2O): 8.32
- Phenomenon ([1]; H2O): turbid
- solubility at 24 h ([1]; aqueous buffer, pH 4.5 buffer): 3590 µg/mL (≈ 6540 µM)
- solubility at 24 h ([1]; aqueous buffer, pH 6.8 buffer): 840 µg/mL (≈ 1530 µM)
- Final pH ([1]; pH 4.5 buffer): 5.84
- Phenomenon ([1]; pH 4.5 buffer): turbid
- Final pH ([1]; pH 6.8 buffer): 6.74
- Phenomenon ([1]; pH 6.8 buffer): turbid
- solubility at 24 h ([1]; simulated gastric fluid, 0.1M HCl): > 50000 µg/mL
- solubility at 24 h ([1]; water, H2O): 60 µg/mL (≈ 109 µM)
- inhibitory activity against SU-DHL-6 cells (SU-DHL-6): high inhibitory activities
